# In patent publication US20100113535A1, “TREATMENT OF PRESBYOPIA WITH ALPHA- PICOLINIC ACID AND ITS ANALOGS” (The Department of Veterans Affairs Technology Transfer …, priority 2005, published 2010):
# Like-named read-outs stand apart in the source and are kept apart here.
# Tests used:
# [1] = test system: porcine lens epithelial (PLE) cells; experiment: Toxicity of PA and its analogs to PLE cell growth (cell counts, 50% inhibitory concentration); type: cell-based; conditions: for IC50: Sus scrofa, 120 hours (five days) with substance, treated cell count equal to 50% of control
# Protocol: FIG. 5. Toxicity of Picolinic Acid and its analogs in Pig Lens Epithelial Cells. Pig lens epithelial cells were plated in quadruplicate in 24 well trays at 5000 cells/well using minimal essential media plus 10% fetal calf serum (10% FCS MEM) with antibiotics. At 24 hours after plating, substances were added with a media change, at appropriate concentrations. Cells were allowed to grow for an additional 120 hours in the presence of the various substances. Cells were then counted, four dishes, in duplicate, and the cell counts were expressed as a percentage of the control cell counts.
# Growth curve data were obtained from cells plated without any agents. Cell counts were performed daily on a total of eight wells per point, by combining four wells per count and performing counts in duplicate.
# The toxicity of PA and its analogs to the PLE cells was tested according to the method of Senderoff et al. (66) PLE cells were plated in 24 well trays at 5000 cells per well in 1 mL of tissue culture medium (see above). The medium was changed at 24 hours, and new medium containing the analogs was added. Five days after addition of substances, cell counts were performed using a total of four wells per point, by combining two wells per count, and performing counts in duplicate. Results were expressed as a percentage of the untreated or control cell counts.
# PLE cells = experiment: Induction of apoptosis in PLE cells (DNA fragmentation detection kit); type: cell-based, porcine; conditions: for effect on monolayer growth, floating cells and DNA laddering staining: 48 hours, 3 mM picolinic acid, 0.3 mM fusaric acid; for state of cells at 72 hours: 3 mmol/L PA, 0.3 mmol/L FA, results not shown; for induction of apoptosis in PLE cells: discussion statement
# Protocol: FIG. 6. Induction of Apoptosis in PLE cells. PLE cells were grown in 35 mm dishes in tissue culture. Analogs were added to media 24 hours after cells were plated. After 48 hours of incubation, floating or supernatant cells were spun onto slides and stained using the DNA fragmentation kit. The conditions are as follows: A. Control monolayer; B. Control stained supernatant; C. 3 mM picolinic acid monolayer; D. 3 mM picolinic acid stained supernatant; E. 0.3 mM fusaric acid monolayer; F. 0.3 mM fusaric acid stained supernatant.
# The ability of PA and its analogs to induce apoptosis was detected with the DNA fragmentation detection kit (Oncogene Research Products, Boston, Mass.). One of the molecular effects of apoptosis is the formation of oligonucleosomal DNA fragments by DNA laddering (67). The kit includes a Klenow DNA polymerase that labels 3′-OH terminals of DNA, which are formed in the laddering process. Incorporated biotinylated nucleotides are then detected with a chromogenic labeling system of streptavidin-horseradish peroxidase diaminobenzidine. Cells were plated in 35-mm wells at a density of 50,000 cells per well. 24 hours after plating, analogs were added concurrently with fresh media. Pictures were taken after 48 hours of exposure to the analogs. Floating cells were washed and placed in Saccomanno's fixative (Shandon, Pittsburgh, Pa.), centrifuged onto Superfrost slides (Fisher Scientific, Pittsburgh, Pa.) with a CytoSpin centrifuge (Shandon, Pittsburgh, Pa.), and stained according to the protocol given.
# To test for the role of apoptosis in the toxicity of PA and its analogs, the PLE cells were exposed to 0.3 mmol/L FA and 3 mmol/L of PA.
# WI-38 cells = conditions: 0.5 mM fusaric acid, cited from earlier work
# corneal endothelium = experiment: Toxicity in corneal endothelium (Janus Green staining of pig corneas); conditions: for Janus Green staining relative to untreated control: 48 hours, corneal endothelium in 2% FCS M199; for Avg Abs650/SD (Janus Green stain eluted from trephine cut-outs of treated corneas): 48 hr in 2% FCS M-199, PA 3 mM, FA 0.3 mM, absorbance at 650 nm
# Protocol: Testing of Toxicity in Corneal endothelium: To test for the effects of PA and FA on corneal endothelium, fresh corneas from pig eyes were aseptically dissected out, with a 2 mm scleral ring and placed in 2% FCS M-199 medium with antibiotics, as M-199 medium has previously been used for corneal experiments (84).
# Times of incubation and concentrations which were used in the apoptosis experiment were implemented, i.e. 48 hours at 3 mM PA and 0.3 mM FA. Serum concentration of 2% was employed to maintain the corneal cells without undo stimulation. Corneas were rinsed with Hanks Balanced Salt Solution (HBSS) and stained for 90 seconds with 0.2 mL 1% Janus Green (85) in HBSS as a test for viability. The corneas were again rinsed. Negative controls were set up by placing corneas in 100% ethanol for 5 minutes prior to addition of Janus Green, to give staining in 100% “damaged” corneas. Using an 8 mm trephine, the central section of the cornea was punched out, and the dye was eluted with 2 ml 100% ethanol and the absorbance was measured at 650 nm. The Janus Green staining experiment of corneas was repeated twice. Duplicate samples were used for drug conditions and triplicate samples for controls. Janus green staining was also carried out on fresh cornea, for comparison purposes.
# [2] = from FIG. 5, read-out: IC50 μg/mL
# [3] = from FIG. 5, read-out: IC50 mmol/L
Compound,"IC50 [1, 2] [µg/mL]","IC50 [1, 3] [mmol/L]",times less toxic than PA ([1]; from IC50 data) [times],times more toxic than PA (on concentration basis) ([1]; from IC50 data),"effect on monolayer growth, floating cells and DNA laddering staining (PLE cells)","effect on monolayer growth, floating cells and DNA laddering staining (PLE cells; listed as FA)",state of cells at 72 hours (PLE cells),induction of apoptosis in PLE cells (PLE cells),"viability of confluent WI-38 cells (WI-38 cells; confluent cells, 48 hour incubation)","decrease in viability of logarithmically growing WI-38 cells (WI-38 cells; logarithmically growing cells, by 30 hours) [%]",Janus Green staining relative to untreated control (corneal endothelium),Avg Abs650/SD (Janus Green stain eluted from trephine cut-outs of treated corneas) (corneal endothelium),"effect on monolayer growth, floating cells and DNA laddering staining (PLE cells; listed as PA)",state of cells at 72 hours (PLE cells; listed as PA)
O=C(O)c1cccc(C(=O)O)n1 [Dipicolinic acid],185,1.11,2.5,,,,,,,,,,,
"CCCCc1ccc(C(=O)O)nc1 [Fusaric acid, fusaric acid]",5.6,0.031,,about 15 times,"many floating cells, with strong nuclear staining",significant cell death by the apoptotic pathway,no living cells were seen,rapidly induced apoptosis,no significant drop in viability,76,stained less than the untreated control,0.287 ± 0.011,,
"O=C(O)c1cccnc1 [Nicotinic acid, nicotinic acid]",539,4.38,,,,,,,,,,,,
O=C(O)c1ccccn1 [Picolinic acid],55.3,0.449,,,inhibits growth of the monolayer with few floating cells,,many floating cells,rapidly induced apoptosis,,,stained less than the untreated control,0.321 ± 0.041,inhibition of cell growth but little cell death,very few cells were still attached
